Experimental findings from patent publication US20070276011A1, “Plasminogen Activator Inhibitor-1 Inhibitor” (priority 2003, published 2007) are described below.

As usually defined, the IC50 is the concentration that inhibits the measured activity by half.

The target in the first test is recombinant human PAI-1 (Homo sapiens, UniProt P05121). Kind of test: PAI-1 inhibitory activity, Test Method A (tPA fluorogenic substrate, Tris buffer pH8.0, 37 C). In kind it is biochemical. The settings on record: 25 μM test compound; Test Method A.
Sequence of recombinant human PAI-1 (P05121 24-402): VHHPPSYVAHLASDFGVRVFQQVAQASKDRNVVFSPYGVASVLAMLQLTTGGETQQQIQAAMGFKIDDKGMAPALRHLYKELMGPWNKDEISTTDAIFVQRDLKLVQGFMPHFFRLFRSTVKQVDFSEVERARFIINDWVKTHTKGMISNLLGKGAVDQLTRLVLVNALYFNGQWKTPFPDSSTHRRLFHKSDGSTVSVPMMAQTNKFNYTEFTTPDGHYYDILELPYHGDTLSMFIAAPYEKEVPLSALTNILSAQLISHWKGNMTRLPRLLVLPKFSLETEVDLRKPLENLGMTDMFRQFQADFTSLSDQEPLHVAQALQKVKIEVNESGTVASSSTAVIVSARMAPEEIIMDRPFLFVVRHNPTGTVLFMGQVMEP
For the molecule `COc1ccc(NC(=O)c2cc(C=C3SC(=O)N(Cc4ccc(Cl)c(Cl)c4)C3=O)ccc2O)cc1OC` [compound 432, 5-[4-hydroxy-3-(3,4-dimethoxyphenylcarbamoyl)benzylidene]-3-(3,4-dichlorobenzyl)thiazolidine-2,4-dione], the “Inhibitory Ratio at 25 μM (%)” value came out at 64%.

Regarding `COc1cc(NC(=O)c2cc(C=C3SC(=O)N(Cc4ccc(Cl)c(Cl)c4)C3=O)ccc2O)cc(OC)c1OC` [compound 433, 5-[4-hydroxy-3-(3,4,5-trimethoxyphenylcarbamoyl)benzylidene]-3-(3,4-dichlorobenzyl)thiazolidine-2,4-dione], the “Inhibitory Ratio at 25 μM (%)” value is given as over 99%. `COc1cccc(NC(=O)c2cc(C=C3SC(=O)N(Cc4ccc(Cl)c(Cl)c4)C3=O)ccc2O)c1OC` [compound 434, 5-[4-hydroxy-3-(2,3-dimethoxyphenylcarbamoyl)benzylidene]-3-(3,4-dichlorobenzyl)thiazolidine-2,4-dione]: the “Inhibitory Ratio at 25 μM (%)” value is reported as over 99%. Take `COC(=O)c1ccc(NC(=O)c2cc(C=C3SC(=O)N(Cc4ccc(Cl)c(Cl)c4)C3=O)ccc2O)cc1O` [compound 437]: the “Inhibitory Ratio at 25 μM (%)” value was found to be 69%. Regarding `COc1cc(C=C2SC(=O)N(Cc3ccc(Cl)c(Cl)c3)C2=O)cc(C(=O)Nc2cc(C(F)(F)F)cc(C(F)(F)F)c2)c1O` [compound 438], the “Inhibitory Ratio at 25 μM (%)” value is on record as over 99%.

As for `COc1cc(C=C2SC(=O)N(Cc3ccc(Cl)c(Cl)c3)C2=O)cc(C(=O)Nc2cc(C(F)(F)F)ccc2Cl)c1O` [compound 439], the “Inhibitory Ratio at 25 μM (%)” value stood at 89%. Still for that read-out and setting: the same measure for `COc1cc(C=C2SC(=O)N(Cc3ccc(Cl)c(Cl)c3)C2=O)cc(C(=O)Nc2ccccc2)c1O` [compound 440]: 82%. For `O=C(Nc1cc(C(F)(F)F)ccc1F)c1cc(C=C2SC(=O)N(Cc3ccc(Cl)c(Cl)c3)C2=O)ccc1O` [compound 442], the “Inhibitory Ratio at 25 μM (%)” value is given as 58%. With `O=C1SC(=Cc2ccc(O)c(-c3ccc(O)c(O)c3)c2)C(=O)N1Cc1ccc(Cl)c(Cl)c1` [compound 445], the “Inhibitory Ratio at 25 μM (%)” value was over 99%. `O=C(O)c1c(O)cc(C=C2SC(=O)N(Cc3ccc(Cl)c(Cl)c3)C2=O)cc1O` [compound 446]: the “Inhibitory Ratio at 25 μM (%)” value is over 99%.

Regarding `COc1ccc(-c2cc(C=C3SC(=O)N(Cc4ccc(Cl)c(Cl)c4)C3=O)ccc2OC)cc1` [compound 448, 5-[4-Methoxy-3-(4-methoxyphenyl)benzylidene]-3-(3,4-dichlorobenzyl)thiazolidine-2,4-dione], the “Inhibitory Ratio at 25 μM (%)” value is listed as 51%. Regarding `O=C1SC(=Cc2ccc(O)c(-c3c(O)cccc3O)c2)C(=O)N1Cc1ccc(Cl)c(Cl)c1` [compound 449], the “Inhibitory Ratio at 25 μM (%)” value is given as over 99%. Same read-out and setting: the result for `COc1ccc(C)c(NC(=O)c2cc(C=C3SC(=O)N(Cc4ccc(Cl)c(Cl)c4)C3=O)ccc2O)c1` [compound 450, 5-[4-hydroxy-3-(2-methyl-5-methoxyphenylcarbamoyl)-benzylidene]-3-(3,4-dichlorobenzyl)thiazolidine-2,4-dione] reads 87%; that for `COc1cc(NC(=O)c2cc(C=C3SC(=O)N(Cc4ccc(Cl)c(Cl)c4)C3=O)ccc2O)cc(C(F)(F)F)c1` [compound 451, 5-{4-hydroxy-3-[3-methoxy-5-(trifluoromethyl)phenylcarbamoyl]-benzylidene}-3-(3,4-dichlorobenzyl)thiazolidine-2,4-dione], over 99%. Regarding `COc1ccc(C)cc1NC(=O)c1cc(C=C2SC(=O)N(Cc3ccc(Cl)c(Cl)c3)C2=O)ccc1O` [compound 452, 5-[4-hydroxy-3-(2-methoxy-5-methylphenylcarbamoyl)-benzylidene]-3-(3,4-dichlorobenzyl)thiazolidine-2,4-dione], the “Inhibitory Ratio at 25 μM (%)” value is recorded as over 99%. In the case of `COC(=O)c1ccc(Cl)cc1NC(=O)c1cc(C=C2SC(=O)N(Cc3ccc(Cl)c(Cl)c3)C2=O)ccc1O` [compound 453, 5-[4-hydroxy-3-(2-methoxycarbonyl-5-chlorophenylcarbamoyl)-benzylidene]-3-(3,4-dichlorobenzyl)thiazolidine-2,4-dione], the “Inhibitory Ratio at 25 μM (%)” value is over 99%. Consider `COc1ccc(Cl)cc1NC(=O)c1cc(C=C2SC(=O)N(Cc3ccc(Cl)c(Cl)c3)C2=O)ccc1O` [compound 454], for which the “Inhibitory Ratio at 25 μM (%)” value is reported as over 99%. Take `COc1ccc(-c2ccccc2)cc1NC(=O)c1cc(C=C2SC(=O)N(Cc3ccc(Cl)c(Cl)c3)C2=O)ccc1O` [compound 455]: the “Inhibitory Ratio at 25 μM (%)” value was over 99%. For `Cc1ccc(O)cc1NC(=O)c1cc(C=C2SC(=O)N(Cc3ccc(Cl)c(Cl)c3)C2=O)ccc1O` [compound 456], the “Inhibitory Ratio at 25 μM (%)” value is reported as 83%. In the case of `Cc1ccc(O)c(NC(=O)c2cc(C=C3SC(=O)N(Cc4ccc(Cl)c(Cl)c4)C3=O)ccc2O)c1` [compound 457], the “Inhibitory Ratio at 25 μM (%)” value was over 99%.

For the molecule `O=C(Nc1cc(Cl)ccc1C(=O)O)c1cc(C=C2SC(=O)N(Cc3ccc(Cl)c(Cl)c3)C2=O)ccc1O` [compound 458], the “Inhibitory Ratio at 25 μM (%)” value is recorded as over 99%.

`O=C(Nc1cc(O)cc(C(F)(F)F)c1)c1cc(C=C2SC(=O)N(Cc3ccc(Cl)c(Cl)c3)C2=O)ccc1O` [compound 459]: the “Inhibitory Ratio at 25 μM (%)” value was over 99%. Still for that read-out and setting: the same measure for `O=C(Nc1cccc2c1OC(F)(F)O2)c1cc(C=C2SC(=O)N(Cc3ccc(Cl)c(Cl)c3)C2=O)ccc1O` [compound 460]: 57%; for `O=C(OCc1ccccc1)c1cc(C=C2SC(=O)N(Cc3ccc(Cl)c(Cl)c3)C2=O)cc(O)c1O` [compound 463, 5-[3,4-Dihydroxy-5-(benzyloxycarbonyl)benzylidene]-3-(3,4-dichlorobenzyl)thiazolidine-2,4-dione]: over 99%. Take `O=C(O)c1cc(C=C2SC(=O)N(Cc3ccc(Cl)c(Cl)c3)C2=O)cc(O)c1O` [compound 464, 5-(3,4-dihydroxy-5-carboxybenzylidene)-3-(3,4-dichlorobenzyl)-thiazolidine-2,4-dione]: the “Inhibitory Ratio at 25 μM (%)” value is over 99%. On the same count and under the same terms, the same measure for `O=C(Nc1cc(F)ccc1F)c1cc(C=C2SC(=O)N(Cc3ccc(Cl)c(Cl)c3)C2=O)ccc1O` [compound 465]: 69%; for `O=C(Nc1cc(C(F)(F)F)ccc1[N+](=O)[O-])c1cc(C=C2SC(=O)N(Cc3ccc(Cl)c(Cl)c3)C2=O)ccc1O` [compound 466]: over 99%; for `COc1ccc(C(C)(C)C)cc1NC(=O)c1cc(C=C2SC(=O)N(Cc3ccc(Cl)c(Cl)c3)C2=O)ccc1O` [compound 467]: over 99%.

As to `COc1ccc(C(F)(F)F)cc1NC(=O)c1cc(C=C2SC(=O)N(Cc3ccc(Cl)c(Cl)c3)C2=O)ccc1O` [compound 468], the “Inhibitory Ratio at 25 μM (%)” value is reported as over 99%.

`O=C(Nc1cc(C(F)(F)F)ccc1Cl)c1cc(C=C2SC(=O)N(Cc3ccc(Cl)c(Cl)c3)C2=O)cc(O)c1O` [compound 469]: the “Inhibitory Ratio at 25 μM (%)” value is reported as over 99%. On the same count and under the same terms, the same measure for `COC(=O)c1cccc(NC(=O)c2cc(C=C3SC(=O)N(Cc4ccc(Cl)c(Cl)c4)C3=O)cc(O)c2O)c1` [compound 470]: 95%. Turning to `COc1ccc(OC)c(NC(=O)c2cc(C=C3SC(=O)N(Cc4ccc(Cl)c(Cl)c4)C3=O)ccc2O)c1` [compound 471], the “Inhibitory Ratio at 25 μM (%)” value came out at 96%.

On to `CC(C)c1ccc(NC(=O)c2cc(C=C3SC(=O)N(Cc4ccc(Cl)c(Cl)c4)C3=O)ccc2O)c(Br)c1` [compound 472], for which the “Inhibitory Ratio at 25 μM (%)” value turned out to be 94%. The same measure, in the same setting: the result for `O=C(Nc1ccc2c(c1)OCO2)c1cc(C=C2SC(=O)N(Cc3ccc(Cl)c(Cl)c3)C2=O)cc(O)c1O` [compound 474] reads 82%; that for `CC1=NN(c2cc(Cl)cc(Cl)c2)C(=O)C1=Cc1cc(O)c(O)cc1O` [compound 501], over 99%; that for `CC(C)C1=NN(c2cc(Cl)ccc2Cl)C(=O)C1=Cc1cc(O)c(O)cc1O` [compound 502, 4-(2,4,5-Trihydroxybenzylidene)-1-(2,5-dichlorophenyl)-3-isopropyl-2-pyrazolin-5-one], 66%.

As to `CC(C)C1=NN(c2cc(Cl)cc(Cl)c2)C(=O)C1=Cc1ccc(O)cc1O` [compound 505], the “Inhibitory Ratio at 25 μM (%)” value was 93%. With `COc1cc(OC)c(OC)cc1C=C1C(=O)N(c2cc(Cl)cc(Cl)c2)N=C1C(C)C` [compound 506], the “Inhibitory Ratio at 25 μM (%)” value worked out at 50%. Consider `CC(C)C1=NN(c2cc(Cl)cc(Cl)c2)C(=O)C1=Cc1c[nH]cn1` [compound 508], for which the “Inhibitory Ratio at 25 μM (%)” value was found to be 26%.

In the case of `O=C1C(=Cc2cccc(O)c2)C(c2ccc(O)cc2)=NN1c1cc(Cl)cc(Cl)c1` [compound 509, 4-(3-Hydroxybenzylidene)-1-(3,5-dichlorophenyl)-3-(4-hydroxyphenyl)-2-pyrazolin-5-one], the “Inhibitory Ratio at 25 μM (%)” value was over 99%.

Turning to `O=C1C(=Cc2cc(Br)ccc2O)C(c2ccc(O)cc2)=NN1c1cc(Cl)cc(Cl)c1` [compound 510], the “Inhibitory Ratio at 25 μM (%)” value worked out at 86%. The same measure, in the same setting: the result for `O=C1C(=Cc2ccc(O)cc2)C(c2ccc(O)cc2)=NN1c1cc(Cl)cc(Cl)c1` [compound 511] reads over 99%. In the case of `CCOC(=O)CCC1=NN(c2ccccc2)C(=O)C1=Cc1ccc2c(c1)OCO2` [compound 512, 4-(3,4-Methylenedioxybenzylidene)-1-phenyl-3-[2-(ethoxycarbonyl)ethyl]-2-pyrazolin-5-one], the “Inhibitory Ratio at 25 μM (%)” value was 52%. As for `CCOC1=NN(c2ccc([N+](=O)[O-])cc2)C(=O)C1=Cc1cc(Br)ccc1O` [compound 513], the “Inhibitory Ratio at 25 μM (%)” value was determined as 72%. For `CCOC(=O)CCC1=NN(c2ccccc2)C(=O)C1=Cc1cc(O)c(O)cc1O` [compound 514], the “Inhibitory Ratio at 25 μM (%)” value is 56%.

For the molecule `CCOC(=O)CCCC1=NN(c2ccc(Cl)cc2)C(=O)C1=Cc1cc(Br)ccc1O` [compound 516, 4-(2-Hydroxy-5-bromobenzylidene)-1-(4-chlorophenyl)-3-[3-(ethoxycarbonyl)propyl]-2-pyrazolin-5-one], the “Inhibitory Ratio at 25 μM (%)” value worked out at 86%. On to `COc1ccc(O)c(C=C2C(=O)N(c3ccc(Cl)c(Cl)c3)N=C2C(C)C)c1` [compound 518, 4-(2-hydroxy-5-methoxybenzylidene)-1-(3,4-dichlorophenyl)-3-isopropyl-2-pyrazolin-5-one], for which the “Inhibitory Ratio at 25 μM (%)” value is recorded as 83%.

Staying with this test, now noted: 50% inhibitory concentration of PAI-1 activity, according to the aforementioned method.
`CC1=NN(c2cc(Cl)cc(Cl)c2)C(=O)C1=Cc1cc(O)c(O)cc1O` [compound 501]: the IC50 was found to be 810 nM.
